The record followed here is PubChem BioAssay (NCI).

The structures appear in SMILES notation.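 These data come from cells grown in 96-well plates and exposed to compound for 48 hours at five concentrations. TGI denotes the concentration required for complete inhibition of growth.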

The first test deals with MDA-MB-231 breast. The test can be described thus: NCI-60 cell line screen, 48 h.
Regarding `O=C(OCC1OC(n2nc(Cn3nnc(-c4cccnc4)n3)n(-c3cccc4ccccc34)c2=S)C(OC(=O)c2ccccc2)C1OC(=O)c1ccccc1)c1ccccc1` (stereo not given), the TGI is > 100 µM.

The molecule `C[n+]1c(/C=C/c2ccc(O)c3ncccc23)[se]c2ccccc21` came in with a TGI of 8.33 µM.

Regarding `COc1ccc(NC(C)c2ccncc2)cc1` (stereo not given), the TGI is > 100 µM.

`O=C1C=CC(=O)C(CNc2ccc(C(=O)OCc3ccccc3)cc2)=C1` returned a TGI of 24.9 µM.

In the case of `CC1=NNC(=O)C1C1CC(c2c[nH]c3ccccc23)=NN=C1Cl` (stereo not given), the TGI is > 100 µM.

`CC(C)C1=C(O)C2=C(C(=O)C1=O)C1(C)CCCC(C)(C)C1C(O)C2OC=O` (stereo not given) yielded a TGI of 22.5 µM.

As for `CC(C)[Si](OC/C(=C/COC(C)(C)C)[C@H]1CC=C(C(=O)c2ccccc2N2CN(C)C(=O)N(C)C2)C1)(C(C)C)C(C)C`, the TGI is 26.6 µM.

Take `COc1ccc2c(c1)c(=O)c1c(NCCNCCO)ccc3c(=O)n(CCN(C)C)c(=O)n2c31`: the TGI came out at 0.508 µM.

The molecule `CC(C)N1CN(c2ccccc2)C2(CCN(CCCC(=O)c3ccc(F)cc3)CC2)C1=O` returned a TGI of 26.6 µM.

In the case of `CC(C)=CCC[C@@H](C)C1=C(O)C(N)=C(C)C(=O)C1=O`, the TGI is > 100 µM.

Regarding `CCOC(=O)C1=CC(C)(C(=O)OCC)Nc2c(nc(N)[nH]c2=O)N1` (stereo not given), the TGI was > 10 µM.

Take `c1ccc(C2CC(=NC3CCCCC3)Nc3ccccc3N2)cc1` (stereo not given): the TGI was > 100 µM.

For a further test, the system named is MDA-N. Nature of the test: NCI-60 cell line screen, 48 h.
With `COC1C(O)C(O[C@H]2CC[C@@]3(C)C(CC[C@@H]4[C@@H]3CC[C@]3(C)[C@@H](C(C)OC5OC(CO)C(O)C(O)C5O)CC[C@]43O)C2)OC(C)C1OC1OC(CO)C(O)C(O)C1O` (stereo not given in full), the TGI was > 100 µM.

As for `Clc1nncc2sc(-c3ccccc3)nc12`, the TGI came out at 51.4 µM.

For `Cc1cc(NS(=O)(=O)c2ccc(NC(NC(=O)C(C(F)(F)F)C(F)(F)F)(C(F)(F)F)C(F)(F)F)cc2)no1`, the TGI is > 100 µM.

Regarding `C/C(=N\Nc1nc2ccccc2s1)c1ccc2ccccc2n1`, the TGI was > 100 µM.

For the molecule `O=S1SC(=S)C2C=CC=CC21` (stereo not given), the TGI is > 100 µM.

`COc1ccc(Oc2cnn(C(Br)(Br)C(C)=O)c(=O)c2Br)cc1` displayed a TGI of 22.9 µM.

On to `C[C@]12CC[C@@H]3c4ccc(O)cc4CC[C@H]3[C@@H]1C/C(=C\c1ccc(C#N)cc1)C2=O`, for which the TGI is > 100 µM.

Consider `CC1(C)CC(C#Cc2ccccc2)CC(C)(C)N1O`, for which the TGI amounted to 29.9 µM.

`Cc1cc(O)c(-c2cc(O)c(C)cc2O)cc1O` registered a TGI of 22.9 µM.

For the molecule `O=C(O)CN(CC(=O)O)C(C(=O)O)c1ccccc1` (stereo not given), the TGI was > 100 µM.

As for `Cc1ccc(NC(=O)/C(Cc2nc3ccc([N+](=O)[O-])cc3[nH]c2=O)=N\NC(=O)C[n+]2ccccc2)c(C)c1`, the TGI is > 100 µM.

For `CCNc1ncnc2sc(SCc3ccccc3)nc12`, the TGI was > 100 µM.

On to `O=C(OCC1OC(n2nc(Cn3nnc(-c4cccnc4)n3)n(-c3cccc4ccccc34)c2=S)C(OC(=O)c2ccccc2)C1OC(=O)c1ccccc1)c1ccccc1` (stereo not given), for which the TGI is > 100 µM.

For `C[n+]1c(/C=C/c2ccc(O)c3ncccc23)[se]c2ccccc21`, the TGI worked out at 25.4 µM.

Consider `COc1ccc(NC(C)c2ccncc2)cc1` (stereo not given), for which the TGI was > 100 µM.

`O=C1C=CC(=O)C(CNc2ccc(C(=O)OCc3ccccc3)cc2)=C1`: the TGI was determined as 19.5 µM.

Regarding `CC1=NNC(=O)C1C1CC(c2c[nH]c3ccccc23)=NN=C1Cl` (stereo not given), the TGI is > 100 µM.

`CC(C)C1=C(O)C2=C(C(=O)C1=O)C1(C)CCCC(C)(C)C1C(O)C2OC=O` (stereo not given) gave a TGI of 28.1 µM.

In turn, `CC(C)[Si](OC/C(=C/COC(C)(C)C)[C@H]1CC=C(C(=O)c2ccccc2N2CN(C)C(=O)N(C)C2)C1)(C(C)C)C(C)C` returned a TGI of 4.62 µM.

The molecule `COc1ccc2c(c1)c(=O)c1c(NCCNCCO)ccc3c(=O)n(CCN(C)C)c(=O)n2c31` yielded a TGI of 0.279 µM.

Take `CC(C)N1CN(c2ccccc2)C2(CCN(CCCC(=O)c3ccc(F)cc3)CC2)C1=O`: the TGI worked out at 36.6 µM.

Turning to `CC(C)=CCC[C@@H](C)C1=C(O)C(N)=C(C)C(=O)C1=O`, the TGI is > 100 µM.

In the case of `CCOC(=O)C1=CC(C)(C(=O)OCC)Nc2c(nc(N)[nH]c2=O)N1` (stereo not given), the TGI was > 10 µM.

For `c1ccc(C2CC(=NC3CCCCC3)Nc3ccccc3N2)cc1` (stereo not given), the TGI is > 100 µM.

The next test deals with NCI-H460 lung. The test can be described thus: NCI-60 cell line screen, 48 h.
`COC1C(O)C(O[C@H]2CC[C@@]3(C)C(CC[C@@H]4[C@@H]3CC[C@]3(C)[C@@H](C(C)OC5OC(CO)C(O)C(O)C5O)CC[C@]43O)C2)OC(C)C1OC1OC(CO)C(O)C(O)C1O` (stereo not given in full): the TGI is > 100 µM.

Regarding `Clc1nncc2sc(-c3ccccc3)nc12`, the TGI is > 57.7 µM.

For `Cc1cc(NS(=O)(=O)c2ccc(NC(NC(=O)C(C(F)(F)F)C(F)(F)F)(C(F)(F)F)C(F)(F)F)cc2)no1`, the TGI was > 100 µM.

Consider `C/C(=N\Nc1nc2ccccc2s1)c1ccc2ccccc2n1`, for which the TGI is > 100 µM.

As for `O=S1SC(=S)C2C=CC=CC21` (stereo not given), the TGI was > 100 µM.

`COc1ccc(Oc2cnn(C(Br)(Br)C(C)=O)c(=O)c2Br)cc1` returned a TGI of 37.1 µM.

Consider `C[C@]12CC[C@@H]3c4ccc(O)cc4CC[C@H]3[C@@H]1C/C(=C\c1ccc(C#N)cc1)C2=O`, for which the TGI is > 100 µM.

As for `CC1(C)CC(C#Cc2ccccc2)CC(C)(C)N1O`, the TGI was found to be 44.8 µM.

The molecule `Cc1cc(O)c(-c2cc(O)c(C)cc2O)cc1O` came in with a TGI of 39.8 µM.

With `O=C(O)CN(CC(=O)O)C(C(=O)O)c1ccccc1` (stereo not given), the TGI is > 100 µM.

On to `Cc1ccc(NC(=O)/C(Cc2nc3ccc([N+](=O)[O-])cc3[nH]c2=O)=N\NC(=O)C[n+]2ccccc2)c(C)c1`, for which the TGI was > 100 µM.

In the case of `CCNc1ncnc2sc(SCc3ccccc3)nc12`, the TGI was > 100 µM.

Regarding `O=C(OCC1OC(n2nc(Cn3nnc(-c4cccnc4)n3)n(-c3cccc4ccccc34)c2=S)C(OC(=O)c2ccccc2)C1OC(=O)c1ccccc1)c1ccccc1` (stereo not given), the TGI is > 100 µM.

`C[n+]1c(/C=C/c2ccc(O)c3ncccc23)[se]c2ccccc21`: the TGI turned out to be 9.34 µM.

For `COc1ccc(NC(C)c2ccncc2)cc1` (stereo not given), the TGI is > 100 µM.

`O=C1C=CC(=O)C(CNc2ccc(C(=O)OCc3ccccc3)cc2)=C1`: the TGI came out at 38.9 µM.

As to `CC1=NNC(=O)C1C1CC(c2c[nH]c3ccccc23)=NN=C1Cl` (stereo not given), the TGI is > 100 µM.

`CC(C)C1=C(O)C2=C(C(=O)C1=O)C1(C)CCCC(C)(C)C1C(O)C2OC=O` (stereo not given) had a TGI of 12.7 µM.

With `CC(C)[Si](OC/C(=C/COC(C)(C)C)[C@H]1CC=C(C(=O)c2ccccc2N2CN(C)C(=O)N(C)C2)C1)(C(C)C)C(C)C`, the TGI is 28.7 µM.

Regarding `COc1ccc2c(c1)c(=O)c1c(NCCNCCO)ccc3c(=O)n(CCN(C)C)c(=O)n2c31`, the TGI was found to be 0.266 µM.

`CC(C)N1CN(c2ccccc2)C2(CCN(CCCC(=O)c3ccc(F)cc3)CC2)C1=O` gave a TGI of 54.2 µM.

Regarding `CC(C)=CCC[C@@H](C)C1=C(O)C(N)=C(C)C(=O)C1=O`, the TGI was > 100 µM.

For the molecule `CCOC(=O)C1=CC(C)(C(=O)OCC)Nc2c(nc(N)[nH]c2=O)N1` (stereo not given), the TGI is > 10 µM.

For `c1ccc(C2CC(=NC3CCCCC3)Nc3ccccc3N2)cc1` (stereo not given), the TGI was > 100 µM.
